Experimental data taken from the NIST ThermoML archive (doi:10.1016/j.fluid.2009.10.018).

How the values were obtained:
[1] = 101.33 kPa, Liquid, Pycnometric method
[2] = excess molar enthalpy (molar enthalpy of mixing); xn = mol fraction of the nth substance listed; details: 297.15 K, 101 kPa, Liquid, Constant Pressure Calorimeter

C1CCNCC1 [piperidine]
[1]
Details	mass density [kg/m3]
293.65 K	873.5
296.05 K	867.1
298.15 K	864.6
300.05 K	856.3
302.65 K	852.4
304.55 K	852.6
306.45 K	852.5
308.25 K	850.6
310.35 K	846.3
313.75 K	842.2
315.15 K	840.8
317.35 K	837.7
319.15 K	835.3
321.15 K	833.5
323.05 K	831.4

C1CCNCC1 [piperidine] + O
[2]
Details	excess molar enthalpy [kcal/mol]
x2 = 0	0
x2 = 0.05	-0.0853
x2 = 0.09	-0.123
x2 = 0.15	-0.18
x2 = 0.21	-0.268
x2 = 0.25	-0.35
x2 = 0.3	-0.4
x2 = 0.35	-0.437
x2 = 0.4	-0.461
x2 = 0.45	-0.475
x2 = 0.5	-0.511
x2 = 0.55	-0.532
x2 = 0.6	-0.53
x2 = 0.65	-0.522
x2 = 0.7	-0.495
x2 = 0.75	-0.469
x2 = 0.93	-0.234
x2 = 0.96	-0.159
x2 = 0.99	-0.0557

c1ccncc1 [pyridine]
[1]
Details	mass density [kg/m3]
293.95 K	981
295.35 K	979.2
297.25 K	977.9
299.15 K	975.3
301.25 K	972.8
303.25 K	971.7
305.15 K	969.9
307.25 K	967.9
309.25 K	965.2
311.35 K	963.6
313.15 K	961.6
315.35 K	959.8
317.55 K	956.3
319.55 K	953.9
321.15 K	953.1

c1ccncc1 [pyridine] + O
[2]
Details	excess molar enthalpy [kcal/mol]
x2 = 0	0
x2 = 0.05	-0.028
x2 = 0.1	-0.061
x2 = 0.15	-0.11
x2 = 0.2	-0.156
x2 = 0.25	-0.21
x2 = 0.3	-0.247
x2 = 0.35	-0.284
x2 = 0.4	-0.33
x2 = 0.45	-0.374
x2 = 0.5	-0.389
x2 = 0.55	-0.388
x2 = 0.6	-0.378
x2 = 0.65	-0.366
x2 = 0.7	-0.332
x2 = 0.73	-0.318
x2 = 0.89	-0.154
x2 = 0.92	-0.121
x2 = 0.95	-0.0804
x2 = 0.98	-0.0364

O [water] + C1CCNCC1
Details	excess molar enthalpy [kcal/mol]
[2], x1 = 1	0

O [water] + c1ccncc1
Details	excess molar enthalpy [kcal/mol]
[2], x1 = 1	0
